We go through seven compounds from patent publication US11889833B2, “Protoporphyrinogen oxidase inhibitors” (Enko Chem, Inc., priority 2022, dated 2024).

Holding throughout (format): in vivo
Assay [1] relates to Setaria italica (SETIT). As to the kind of experiment: Post-emergence herbicidal activity, SETIT. As to conditions: % visual injury compared to treatment control, 7 days after treatment. How it is done:
(§1) Selected compounds of the invention were screened at 100 PPM against Amaranthus retroflexus (AMARE), Echinochloa crus-galli (ECHCG), Kochia scoparia (KCHSC), and Setaria italica (SETIT).
(§2) Accordingly, PPO susceptible weed seeds were sown in 5″×5″ pots by quadrant containing Miracle-Gro potting mix (Scotts Miracle-Gro Company, Marysville, OH, USA) and grown in a Conviron growth chamber with appropriate growth conditions (temperature of 26/22° C. with photoperiod 16/8 h light day/night and light intensity of 300 μmol m^−2s^−1 supplemented by LED lamps). Relative humidity in the growth chamber was maintained at around 65%. Plants were grown until 2-4 leaf stage and thinned to 5-8 plants per quadrant per species.
(§3) Compounds were formulated in 25% Acetone, 1% Crop oil concentrate (COC-Agridex), 0.1% Tween-20, and 2.5% Ammonium sulphate (AMS). Three replicate pots were treated with each compound. Treatment consisting of the above formulation excluding active compound was applied as a treatment control (TC). Plants were treated with the test compound solution in a laboratory spray chamber fitted with 8003 flat fan nozzles calibrated to deliver 187-200 L ha^−1 at 269 kPa. Plants were placed back in the growth chamber and evaluated for % visual injury compared to TC 7 days after treatment (DAT). The data presented in Table 3 indicate a percentage control, where 100% control indicates complete inhibition of growth.

The test system of assay [2] is Echinochloa crus-galli (ECHCG). As to the kind of experiment: Post-emergence herbicidal activity, ECHCG. Particulars: % visual injury compared to treatment control, 7 days after treatment. How it is done:
as §1, §2, §3

Assay [3] has as its system Kochia scoparia (KCHSC). The experiment in a line: Post-emergence herbicidal activity, KCHSC. Particulars: % visual injury compared to treatment control, 7 days after treatment. How it is done: as §1, §2, §3
Assay [4] has as its system Amaranthus retroflexus (AMARE). The experiment in a line: Post-emergence herbicidal activity, AMARE. Particulars: % visual injury compared to treatment control, 7 days after treatment. How it is done:
as §1, §2, §3

Assay [5] has as its system Amaranthus retroflexus (AMARE). As to the kind of experiment: Pre-emergence herbicidal activity, AMARE. As to conditions: % growth and germination inhibition compared to treatment control, 7 days after treatment. How it is done: Selected compounds of the invention were screened at 200 PPM against Amaranthus retroflexus (AMARE).
Accordingly, PPO susceptible weed seeds were planted in 5″×5″ pots by quadrant containing custom field soil mix (Sandy loam with 4.7% OM, pH 7.0) and covered with a fine layer of the same soil. Compounds were formulated in 25% Acetone, 1% Crop oil concentrate (COC-Agridex), 0.1% Tween-20, and 2.5% Ammonium sulphate (AMS). Three replicate pots were treated with each compound. Treatment consisting of the above formulation excluding active compound was applied as a treatment control (TC). Pots were treated with the test compound solution in a laboratory spray chamber fitted with 8003 flat fan nozzles calibrated to deliver 187-200 L ha-1 at 269 kPa. Compound was incorporated into the soil by simulating rainfall equivalent to 0.2 mm using the same track sprayer. Subsequently, pots were irrigated from the bottom until assessed for % growth and germination inhibition. Pots were placed back in the growth chamber and evaluated for % growth and germination inhibition compared to TC 7 days after treatment (DAT). Growth conditions are similar to the ones mentioned in POST emergence assay.
The data presented in Table 4 indicate a percentage control, where 100% control indicates complete inhibition of growth and germination.

Turning to `COC(=O)CCNC(=O)[C@@H](C)Sc1cc(-c2c(F)c(F)c(F)c(F)c2F)c(F)cc1Cl` (single isomer, unassigned) [Compound 6], the “Post-emergence (100 ppm) SETIT, percentage control” value in assay [1] came out at 8%. Further, the “Post-emergence (100 ppm) ECHCG, percentage control” value in assay [2] is 10%. In addition, the “Post-emergence (100 ppm) KCHSC, percentage control” value in assay [3] is recorded as 12%. Also, the “Post-emergence (100 ppm) AMARE, percentage control” value in assay [4] was found to be 100%.
The corresponding values for `C[C@H](Sc1cc(-c2c(F)c(F)c(F)c(F)c2F)c(F)cc1Cl)C(=O)NCCC(=O)O` [Compound 7, (S)-3-(2-((4-chloro-2′,3′,4′,5′,6,6′-hexafluoro-[1,1′-biphenyl]-3-yl)thio)propanamido)propanoic acid] are 28%, 37%, 20% and 100%.
The matching figures for `C[C@@H](Sc1cc(-c2c(F)c(F)c(F)c(F)c2F)c(F)cc1Cl)C(=O)NCCC(=O)O` [Compound 8, (R)-3-(2-((4-chloro-2′,3′,4′,5′,6,6′-hexafluoro-[1,1′-biphenyl]-3-yl)thio)propanamido)propanoic acid]: 23%, 28%, 23% and 100%.
On to `CN(C)C(=O)NS(=O)(=O)c1cc(-c2c(F)c(F)c(F)c(F)c2F)c(F)cc1Cl` [Compound 16, 4-chloro-N-(dimethylcarbamoyl)-2′,3′,4′,5′,6,6′-hexafluoro-[1,1′-biphenyl]-3-sulfonamide], for which, in assay [1], the “Post-emergence (100 ppm) SETIT, percentage control” value is reported as 43%. In addition, the “Post-emergence (100 ppm) ECHCG, percentage control” value in assay [2] amounted to 95%. Further, the “AMARE pre-emergence (200 ppm), percentage control” value in assay [5] worked out at 100%. The “Post-emergence (100 ppm) KCHSC, percentage control” value in assay [3] is given as 8%. The “Post-emergence (100 ppm) AMARE, percentage control” value in assay [4] is 33%.
The matching figures for `CC(=O)NS(=O)(=O)c1cc(-c2c(F)c(F)c(F)c(F)c2F)c(F)cc1Cl` [Compound 17, N-((4-chloro-2′,3′,4′,5′,6,6′-hexafluoro-[1,1′-biphenyl]-3-yl)sulfonyl)acetamide]: 100%, 100%, 100%, 13% and 88%.
The corresponding values for `CCC(=O)NS(=O)(=O)c1cc(-c2c(F)c(F)c(F)c(F)c2F)c(F)cc1Cl` [Compound 18, N-((4-chloro-2′,3′,4′,5′,6,6′-hexafluoro-[1,1′-biphenyl]-3-yl)sulfonyl)propionamide] are 100%, 100%, 100%, 23% and 100%.
For `CCC(=O)NS(=O)(=O)c1cc(-c2c(F)cc(F)c(F)c2F)c(F)cc1Cl` [Compound 26, N-((4-chloro-2′,3′,4′,6,6′-pentafluoro-[1,1′-biphenyl]-3-yl)sulfonyl)propionamide], in assay [1], the “Post-emergence (100 ppm) SETIT, percentage control” value came out at 100%. In addition, the “Post-emergence (100 ppm) ECHCG, percentage control” value in assay [2] was determined as 100%. The “AMARE pre-emergence (200 ppm), percentage control” value in assay [5] was found to be 100%. In addition, in assay [3], the “Post-emergence (100 ppm) KCHSC, percentage control” value was determined as 15%. For the same compound, the “Post-emergence (100 ppm) AMARE, percentage control” value in assay [4] came to 100%.
